Results on two molecules are retold here after US20230331663A1, “SMALL MOLECULE NICOTINAMIDE ADENINE DINUCLEOTIDE MODULATORS” (THE CLEVELAND CLINIC FOUNDATION, priority 2020, published 2023).

Data set [1] has as its system Human bone marrow cells from healthy volunteers. As to the kind of experiment: Human HSPC self renewal, methyl cellulose colony re-plating. It is filed as cell-based. The settings on record: colonies counted after eight days and re-plated until control HSPCs exhausted. On the procedure: The human bone marrow cells from healthy volunteers were grown in methyl cellulose in the presence and absence of the compound 1-17 and colony number were counted after eight days in culture and re-plated till control HSPCs were completely exhausted. A. The number of colony and B. the total cellular output.
Human bone marrow cells from healthy volunteers were grown in methyl cellulose in the presence and absence of the compound 1-17 and colony number were counted after eight days in culture and re-plated till control HSPCs were completely exhausted.

Data set [2] has as its system healthy murine bone marrow. As to the kind of experiment: Treatment of healthy mice, hematopoiesis. It is filed as in vivo. Particulars: 40 mg/kg. How it is done:
The effects of CD38 inhibitor 1-17 and its analogues on hematopoiesis of healthy murine bone marrow were tested. […] Experiments were conducted to determine whether treatment with compound 1-17 has impact on blood counts and NAD+ levels in cells. The inventors treated 9 mice which were sacrificed at 2, 5 and 12 week and blood counts, marrow morphology and cellularity and bone marrow colony formation per 10^6 cell were determined in colony forming assays.

Data set [3] deals with murine bone marrow cells from C57bl6 mice. The data set is described as follows: Mouse HSPC self renewal, methyl cellulose colony re-plating. It is filed as cell-based. How it is done:
FIGS. 5A and 5B provide graphs showing Treatment of 1-17 to murine bone marrow expands the colony forming hematopoietic stem cells. The murine bone marrow cells from C57BL6 mice were grown in methyl cellulose in the presence and absence of the compound 1-17 and colony number were counted every week and re-plated. A. The number of colony and B. the total cellular output.
The murine bone marrow cells from C57bl6 mice were grown in methyl cellulose in the presence and absence of compound 1-17. Colony numbers were counted every week and re-plated.
FIG. 5 provides graphs showing that treatment with compound 1-17 increases mouse HSPC self-renewal. […] Additionally, as shown in FIG. 5B directed to total cellular output, cells also proliferate far longer than the vehicle control, maintaining population for an average of 1 to 2 passes after control.

Data set [4] relates to Total Human bone marrow, isolated CD34+ HSPCs, LTC-IC. The data set is described as follows: Stem cell function, total cellular output in culture. It is filed as cell-based. On the procedure:
Total Human bone marrow A, isolated CD34+ HSPCs B, and long-term culture initiating hematopoietic cells (LTC-IC) C, were grown in the presence and absence of the compound 1-17 and the total cellular output was determined. Compound 1-17 is synergistic with NAD treatment.
Total Human bone marrow, isolated CD34+ HSPCs, and long-term culture initiating hematopoietic cells (LTC-lC), were grown in the presence and absence of compound 1-17 and the total cellular output was determined.

The target of data set [5] is T1, recombinant human CD38 full length protein (Homo sapiens, UniProt P28907).
T1 construct: The recombinant human CD38 full length protein UniProtKB - P28907 (CD38_HUMAN); His-tag (inferred from the pET28a vector and IMAC purification); made in house
T1 sequence (P28907 1-300): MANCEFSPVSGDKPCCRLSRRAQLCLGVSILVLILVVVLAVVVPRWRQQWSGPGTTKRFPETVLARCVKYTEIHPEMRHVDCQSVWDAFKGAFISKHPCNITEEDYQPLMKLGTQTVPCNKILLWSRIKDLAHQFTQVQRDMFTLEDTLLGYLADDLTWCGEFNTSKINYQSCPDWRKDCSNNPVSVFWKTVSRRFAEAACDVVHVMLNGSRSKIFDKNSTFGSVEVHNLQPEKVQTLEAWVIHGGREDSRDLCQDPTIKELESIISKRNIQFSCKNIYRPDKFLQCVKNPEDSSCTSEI
As to the kind of experiment: β-NAD+ degradation assay (HPLC, C18). It is filed as biochemical. The settings on record: purified full length wild type recombinant CD38 incubated with NAD+. How it is done: FIGS. 3A-3D provides graphs showing Compound 1-17 inhibits CD38 and protects NAD degradation in vitro. Full length wild type recombinant CD38 was expressed and purified and incubated with NAD and high-performance liquid chromatographic assay using C18 were used to quantify NAD degradation. A. chromatogram with vehicle, B. CD38 incubation for 4 hours at room temperature C.
The recombinant human CD38 full length protein UniProtKB - P28907 (CD38_HUMAN) was cloned into pET28a and purified using IMAC column followed by gel filtration on SephacrylS200. The purified protein (10 µg/ml) was incubated with varying amount of NAD+ in assay buffer ([…], 5 mM MgCl2 at pH 7.0) at 25° C. for 3 hours, reaction was stopped by heat inactivation followed by acetone precipitation of protein the supernatant was vacuum dried and dissolved in water and loaded onto reverse phase C18 column and eluted with a gradient of 0-25% of acetonitrile in water.
Full length wild type recombinant CD38 was expressed and purified and incubated with NAD+ and high-performance liquid chromatographic assay using C18 were used to quantify NAD+ degradation.

Data set [6] concerns undifferentiated normal human fibroblast (NHFB). As to the kind of experiment: Cell proliferation assay, fibroblast life span. It is filed as cell-based. How it is done:
FIGS. 4A and 4B provide graphs showing NAD protection by compound 1-17 extend life span of undifferentiated normal human fibroblast (NHFB) under in-vitro cell culture conditions. NHFB were either A. young (<8 doubling time) or B. old (>10 doublings) cell cultures were treated with indicated amount of 1-17 in complete growth media.
NHFB were either young (<8 doubling time) (FIG. 4A) or old (>10 doublings) (FIG. 4B). Cell cultures were treated with the indicated amount of 1-17 in complete growth media.

“Also recorded” adds a separate entry of the source.

For the molecule `O=C(Nc1cccc2cc(C(F)(F)F)ccc12)c1cc(CCCF)ccc1O` [Compound 1-11], in data set [1], the “colony forming hematopoietic stem and progenitor cells (HSPCs)” value is “expands the colony forming hematopoietic stem and progenitor cells (HSPCs)”.

Take `Cl.NCCc1ccc(O)c(C(=O)Nc2cccc3ccccc23)c1` [Compound 1-17, 5-(2-Aminoethyl)-2-hydroxy-N-(naphthalen-1-yl)benzamide]: in data set [2], the “efficacy and tolerability of treatment dose” value is “effective and well tolerated”. Moreover, in data set [3] (mouse bone marrow in methyl cellulose, counted every week and re-plated), the “self-renewal of HSPCs in colony numbers and overall cell counts” value is on record as “markedly increased”. Moreover, the “passes for which population is maintained after control” value in data set [3] (total cellular output, versus vehicle control) lay in the range of 1 to 2 passes. In addition, the “combination with NAD treatment” value in data set [4] (cell culture, total cellular output) is recorded as “synergies with NAD treatment”. Besides, the “long term hematopoietic stem cells, total cellular output” value in data set [4] (total human bone marrow, CD34+ HSPCs, LTC-IC in culture) is “expands long term hematopoietic stem cells in cell culture”. Further, in data set [5], the “inhibition of CD38 NAD+ degradation” value is “inhibits CD38 and protects NAD+ degradation in vitro; also recorded: Dose dependent inhibition of CD38”. Besides, the doubling time result in data set [6] (NHFB treated with indicated amount of compound) was “significantly increased in a dose dependent fashion”. Moreover, in data set [6] (young (<8 doubling time) or old (>10 doublings) NHFB, complete growth media), the “life span of NHFB in culture” value was “extends the life span”. The “colony forming hematopoietic stem and progenitor cells (HSPCs)” value in data set [1] is “expands the colony forming hematopoietic stem and progenitor cells (HSPCs)”.
